This note sets out measurements from publication PMC9841533, “Microtubule-Stabilizing 1,2,4-Triazolo[1,5-a]pyrimidines as Candidate Therapeutics for Neurodegenerative Disease: Matched Molecular Pair Analyses and Computational Studies Reveal New Structure–Activity Insights” (Journal of Medicinal Chemistry, 2022).

Structures can show the parent of a compound that is named as a salt. Where two headings read alike, the source gives them in different places.

Test [1] has as its system acetylated α-tubulin (AcTub) levels in QBI293 cells. The test is described as follows: QBI293 cell assay of MT stabilization: acetylated α-tubulin ELISA. The format is cell-based. The protocol: (§1) All test compounds were initially screened in the same cell-based (QBI293) assay of MT stabilization used in our previous SAR studies[11],[12] so as to allow direct comparison with literature data. Changes in levels of acetylated α-tubulin (AcTub) and total α-tubulin (α-Tub), relative to vehicle-treated negative control cells, were determined after 4 h of incubation with test compounds at 1 and 10 μM. To account for possible day-to-day differences in the responsiveness of cells to MT-stabilizing treatment, compound-dependent changes in AcTub levels relative to DMSO-treated cells were also normalized to the corresponding changes caused by 100 nM of 5 that was used as a positive control. In addition, docking studies, binding free energy calculations, and in selected cases, molecular dynamic simulations were conducted using an X-ray structure of the vinca and seventh sites (PDB: 5NJH,[10]7CLD[13]). […] For selected compounds, additional studies included testing in the QBI293 cell AcTub assay at additional compound concentrations, and/or evaluation of test compounds for their ability to prevent MT collapse in primary neuron cultures treated with the phosphatase inhibitor, okadaic […] (OA). Finally, cytotoxicity studies in QBI293 and HeLa cells were also conducted for representative examples (Supporting Information).
(§2) Compound-induced changes in acetylated-tubulin and α-tubulin in QBI293 cells or primary mouse or rat neurons were as previously described.[11],[12] […] The plated cells were incubated overnight, after which the medium was aspirated and fresh medium containing vehicle (0.25–0.3% DMSO) or test compound was added. Test compounds were prepared as 4–20 mM stock solutions in 100% DMSO, and these were diluted in culture medium prior to addition to the QBI293 cells. After 4 h incubation, whole-cell extracts were prepared from the QBI293 cells as described[11] and the supernatant fraction from each sample was assessed for protein content by bicinchoninic acid (BCA) assay. The amount of acetyl-tubulin (AcTub) and α-tubulin (αTub) within the cell extract samples was quantified using specific enzyme-linked immunosorbent assays (ELISA), as previously described.[11] Acetyl-tubulin levels were determined in a similar manner in rat or mouse cortical neuron cultures in which embryonic dissociated cortical neurons were plated at 3 × 10^5 cells/well in poly-D-lysine-coated 12-well plates, essentially as previously described.[11] […] Culture homogenates were prepared for the determination of AcTub levels by ELISA as previously described.[11]
(In general: In an ELISA, binding on a coated surface is turned into a signal by an enzyme label.)

Test [2] relates to total α-tubulin (α-Tub) levels in QBI293 cells. The test can be described thus: QBI293 cell assay: total α-tubulin ELISA. It is filed as cell-based. The protocol:
as §1, §2

Setting [3] is: 4 h, 1 uM compound, read-out: AcTub (1uM).
Where [4] appears, read: 4 h, 10 uM compound, read-out: AcTub (10 uM).
The mark [5] stands for this setting: 4 h incubation, 1 μM, read-out: AcTub 1 μM, fold-change compared to vehicle (DMSO)-treated cells.
Where [6] appears, read: 4 h incubation, 10 μM, read-out: AcTub 10 μM, fold-change compared to vehicle (DMSO)-treated cells.
Where [7] appears, read: 4 h, 1 uM compound, read-out: AlfaTub (1uM).
Where [8] appears, read: 4 h, 10 uM compound, read-out: AlfaTub (10 uM).
[9] abbreviates: 4 h incubation, 1 μM, read-out: α-Tub 1 μM, fold-change compared to vehicle (DMSO)-treated cells.
[10] abbreviates: 4 h incubation, 10 μM, read-out: α-Tub 10 μM, fold-change compared to vehicle (DMSO)-treated cells.

`C[C@H](Nc1c(-c2c(F)cc(OCCCCO)cc2F)c(Cl)nc2ncnn12)C(F)(F)F` [Compound 19, (S)-4-(4-(5-Chloro-7-((1,1,1-trifluoropropan-2-yl)amino)-[1,2,4]triazolo[1,5-a]pyrimidin-6-yl)-3,5-difluorophenoxy)butan-1-ol]: the “AcTub (1 uM - normalized)” value in test [1] (1 uM compound) was 0.59. In test [1] (10 uM compound), the “AcTub (10 uM - normalized)” value was found to be 0.6. In addition, the fold induction at 1 µM in test [1] (setting [3]) was 7.3; in test [1] (setting [5]), 7.3 ± 1.51; in test [2] (setting [7]), 0.62; in test [2] (setting [9]), 0.62 ± 0.05. Moreover, the fold induction at 10 µM turned out to be 7.04 in test [1] (setting [4]), 7.04 ± 0.04 in test [1] (setting [6]), 0.35 in test [2] (setting [8]) and 0.35 ± 0.04 in test [2] (setting [10]). The “AcTub 1 μM, fold-change compared to positive control compound 5 (100 nM) (in parentheses)” value (from here on “AcTub 1 μM, fold-change”) in test [1] (4 h incubation, 1 μM) is reported as 0.59 fold-change. For the same compound, in test [1] (4 h incubation, 10 μM), the “AcTub 10 μM, fold-change compared to positive control compound 5 (100 nM) (in parentheses)” value (“AcTub 10 μM, fold-change” for short) turned out to be 0.6 fold-change.

Consider `CNCC#Cc1cc(F)c(-c2c(Cl)nc3ncnn3c2N[C@H](C)C(C)C)c(F)c1` [Compound 51, (R)-5-Chloro-6-(2,6-difluoro-4-(3-(methylamino)prop-1-yn-1-yl)phenyl)-N-(3-methylbutan-2-yl)-[1,2,4]triazolo[1,5-a]pyrimidin-7-amine Hydrochloride], for which the “AcTub (1 uM - normalized)” value in test [1] (1 uM compound) amounted to 0.27. Further, the “AcTub (10 uM - normalized)” value in test [1] (10 uM compound) came out at 0.79. Moreover, the fold induction at 1 µM in test [1] (setting [3]) was determined as 1.98; in test [1] (setting [5]), 1.98 ± 0.09; in test [2] (setting [7]), 0.96; in test [2] (setting [9]), 0.96 ± 0.01. Also, the fold induction at 10 µM in test [1] (setting [4]) was 5.92; in test [1] (setting [6]), 5.92 ± 0.14; in test [2] (setting [8]) it was 0.96; in test [2] (setting [10]), 0.96 ± 0.03. Besides, in test [1] (4 h incubation, 1 μM), the “AcTub 1 μM, fold-change” value was found to be 0.27 fold-change. Further, the “AcTub 10 μM, fold-change” value in test [1] (4 h incubation, 10 μM) is reported as 0.79 fold-change.

As to `CNCC#Cc1cc(F)c(-c2c(Cl)nc3ncnn3c2N[C@H](C)C(C)(C)C)c(F)c1` [Compound 59, (R)-5-Chloro-6-(2,6-difluoro-4-(3-(methylamino)prop-1-yn-1-yl)phenyl)-N-(3,3-dimethylbutan-2-yl)-[1,2,4]triazolo[1,5-a]pyrimidin-7-amine Hydrochloride], the “AcTub (1 uM - normalized)” value in test [1] (1 uM compound) is 0.81. Also, the “AcTub (10 uM - normalized)” value in test [1] (10 uM compound) came to 1.16. The fold induction at 1 µM was found to be 6.03 in test [1] (setting [3]), 6.03 ± 0.64 in test [1] (setting [5]), 0.93 in test [2] (setting [7]) and 0.93 ± 0.02 in test [2] (setting [9]). Further, the fold induction at 10 µM in test [1] (setting [4]) is 8.67; in test [1] (setting [6]), 8.67 ± 0.16; in test [2] (setting [8]), 1; in test [2] (setting [10]) it was 1 ± 0.03. For the same compound, in test [1] (4 h incubation, 1 μM), the “AcTub 1 μM, fold-change” value is recorded as 0.81 fold-change. For the same compound, in test [1] (4 h incubation, 10 μM), the “AcTub 10 μM, fold-change” value came to 1.16 fold-change.

Regarding `CC1(CNc2c(-c3c(F)cc(F)cc3F)c(Cl)nc3ncnn23)CC1` [Compound 13, 5-Chloro-N-((1-methylcyclopropyl)methyl)-6-(2,4,6-trifluorophenyl)-[1,2,4]triazolo[1,5-a]pyrimidin-7-amine], the “AcTub (1 uM - normalized)” value in test [1] (1 uM compound) is recorded as 0.26. Further, in test [1] (10 uM compound), the “AcTub (10 uM - normalized)” value amounted to 0.49. In addition, the fold induction at 1 µM in test [1] (setting [3]) stood at 2.68; in test [1] (setting [5]), 2.68 ± 0.24; in test [2] (setting [7]), 1.04; in test [2] (setting [9]) it was 1.04 ± 0.07. In addition, the fold induction at 10 µM in test [1] (setting [4]) came out at 5.06; in test [1] (setting [6]), 5.06 ± 0.23; in test [2] (setting [8]), 0.97; in test [2] (setting [10]), 0.97 ± 0.02. For the same compound, the “AcTub 1 μM, fold-change” value in test [1] (4 h incubation, 1 μM) is on record as 0.26 fold-change. Further, the “AcTub 10 μM, fold-change” value in test [1] (4 h incubation, 10 μM) is given as 0.49 fold-change.

In the case of `C[C@H](Nc1c(-c2c(F)cc(C#CCCN(C)C)cc2F)c(Cl)nc2ncnn12)C(F)(F)F` [Compound 44, (S)-5-Chloro-6-(4-(4-(dimethylamino)but-1-yn-1-yl)-2,6-difluorophenyl)-N-(1,1,1-trifluoropropan-2-yl)-[1,2,4]triazolo[1,5-a]pyrimidin-7-amine], in test [1] (1 uM compound), the “AcTub (1 uM - normalized)” value is 2.01. In test [1] (10 uM compound), the “AcTub (10 uM - normalized)” value came out at 1.17. Further, the fold induction at 1 µM in test [1] (setting [3]) was 10.9; in test [1] (setting [5]), 10.9 ± 0.24; in test [2] (setting [7]), 0.77; in test [2] (setting [9]), 0.77 ± 0.04. For the same compound, the fold induction at 10 µM in test [1] (setting [4]) was found to be 6.33; in test [1] (setting [6]), 6.33 ± 0.22; in test [2] (setting [8]) it was 0.93; in test [2] (setting [10]), 0.93 ± 0.03. Moreover, in test [1] (4 h incubation, 1 μM), the “AcTub 1 μM, fold-change” value was found to be 2.01 fold-change. In test [1] (4 h incubation, 10 μM), the “AcTub 10 μM, fold-change” value turned out to be 1.17 fold-change.

Take `C[C@H](Nc1c(-c2c(F)cc(OCCCCCO)cc2F)c(Cl)nc2ncnn12)C(F)(F)F` [Compound 20, (S)-5-(4-(5-Chloro-7-((1,1,1-trifluoropropan-2-yl)amino)-[1,2,4]triazolo[1,5-a]pyrimidin-6-yl)-3,5-difluorophenoxy)pentan-1-ol]: the “AcTub (1 uM - normalized)” value in test [1] (1 uM compound) is 0.50. In addition, in test [1] (10 uM compound), the “AcTub (10 uM - normalized)” value is 0.96. Moreover, the fold induction at 1 µM in test [1] (setting [3]) amounted to 3.73; in test [1] (setting [5]) it was 3.73 ± 0.22; in test [2] (setting [7]), 0.37; in test [2] (setting [9]) it was 0.43 ± 0.07. Moreover, the fold induction at 10 µM in test [1] (setting [4]) turned out to be 7.12; in test [1] (setting [6]), 7.12 ± 0.29; in test [2] (setting [8]) it was 0.28; in test [2] (setting [10]), 0.36 ± 0.03. In addition, in test [1] (4 h incubation, 1 μM), the “AcTub 1 μM, fold-change” value is recorded as 0.50 fold-change. In addition, the “AcTub 10 μM, fold-change” value in test [1] (4 h incubation, 10 μM) is reported as 0.96 fold-change.

For `CN(C)CCCOc1cc(F)c(-c2c(Cl)nc3ncnn3c2NCC2CCC2)c(F)c1` [Compound 30, 5-Chloro-N-(cyclobutylmethyl)-6-(4-(3-(dimethylamino)propoxy)-2,6-difluorophenyl)-[1,2,4]triazolo[1,5-a]pyrimidin-7-amine], the “AcTub (1 uM - normalized)” value in test [1] (1 uM compound) is given as 0.61. In addition, the “AcTub (10 uM - normalized)” value in test [1] (10 uM compound) is listed as 0.15. The fold induction at 1 µM in test [1] (setting [3]) was 1.49; in test [1] (setting [5]), 1.49 ± 0.18; in test [2] (setting [7]), 0.8; in test [2] (setting [9]), 0.8 ± 0.03. Moreover, the fold induction at 10 µM in test [1] (setting [4]) came out at 0.37; in test [1] (setting [6]) it was 0.37 ± 0.12; in test [2] (setting [8]), 0.93; in test [2] (setting [10]) it was 0.93 ± 0.05. Besides, in test [1] (4 h incubation, 1 μM), the “AcTub 1 μM, fold-change” value is on record as 0.61 fold-change. Moreover, in test [1] (4 h incubation, 10 μM), the “AcTub 10 μM, fold-change” value worked out at 0.15 fold-change.

Take `CN(C)CCCOc1cc(F)c(-c2c(Cl)nc3ncnn3c2NCC(C)(C)C)c(F)c1` [Compound 26, 5-Chloro-6-(4-(3-(dimethylamino)propoxy)-2,6-difluorophenyl)-N-neopentyl-[1,2,4]triazolo[1,5-a]pyrimidin-7-amine]: the “AcTub (1 uM - normalized)” value in test [1] (1 uM compound) was 1.12. Also, the “AcTub (10 uM - normalized)” value in test [1] (10 uM compound) is listed as 0.1. Further, the fold induction at 1 µM in test [1] (setting [3]) was found to be 5.98; in test [1] (setting [5]), 5.98 ± 0.11; in test [2] (setting [7]), 0.67; in test [2] (setting [9]), 0.69 ± 0.03. Moreover, the fold induction at 10 µM in test [1] (setting [4]) was 0.52; in test [1] (setting [6]) it was 0.52 ± 0.07; in test [2] (setting [8]), 0.73; in test [2] (setting [10]), 0.73 ± 0.07. Moreover, in test [1] (4 h incubation, 1 μM), the “AcTub 1 μM, fold-change” value is recorded as 1.12 fold-change. Also, in test [1] (4 h incubation, 10 μM), the “AcTub 10 μM, fold-change” value came out at 0.10 fold-change.
